Test results: patent publication US12565489B2, “Heterocyclyl pyrimidines and triazines as novel fungicides” (Bayer Aktiengesellschaft, priority 2020, dated 2026)
Read-outs that look alike come from different tables or passages of the source.

Assays:
[1] = Measurement of Log P values by HPLC on reversed phase columns (EEC directive 79/831 Annex V.A8); type: physicochemical
Experimental: Measurement of Log P values as provided herein was performed according to EEC directive 79/831 Annex V.A8 by HPLC (High Performance Liquid Chromatography) on reversed phase columns with the following methods: • ^[a] Log P value is determined by measurement of LC-UV, in an acidic range, with 0.1% formic acid in water and acetonitrile as eluent (linear gradient from 10% acetonitrile to 95% acetonitrile). • ^[b] Log P value is determined by measurement of LC-UV, in a neutral range, with 0.001 molar ammonium acetate solution in water and acetonitrile as eluent (linear gradient from 10% acetonitrile to 95% acetonitrile). • ^[c] Log P value is determined by measurement of LC-UV, in an acidic range, with 0.1% phosphoric acid and acetonitrile as eluent (linear gradient from 10% acetonitrile to 95% acetonitrile).
If more than one Log P value is available within the same method, all the values are given and separated by “+”.
Calibration was done with straight-chain alkan2-ones (with 3 to 16 carbon atoms) with known Log P values (measurement of Log P values using retention times with linear interpolation between successive alkanones). Lambda-max-values were determined using UV-spectra from 200 nm to 400 nm and the peak values of the chromatographic signals

Alternaria brassicae = assay: In vivo preventive test on Alternaria brassicae (leaf spot on radish or cabbage); conditions: 144 h, 500 ppm of active ingredient, preventive spray on young radish or cabbage plants, evaluated 6 days after inoculation, read-out: efficacy
Experimental: (§1) The active ingredients were made soluble and homogenized in a mixture of Dimethyl sulfoxide/Acetone//Tween®80 and then diluted in water to the desired concentration. The young plants of radish or cabbage were treated by spraying the active ingredient prepared as described above. Control plants were treated only with an aqueous solution of Acetone/Dimethyl sulfoxide/Tween® 80. After 24 hours, the plants were contaminated by spraying the leaves with an aqueous suspension of Alternaria brassicae spores.

Pyrenophora teres = Pyrenophora teres in vitro cell test; type: cell-based; conditions: 144 h, 20 ppm of active ingredient, 6 days incubation, liquid culture, spectrometric measurement of mycelium growth, read-out: efficacy (inhibition of fungal growth)
Experimental: (§2) • Solvent: DMSO • Culture medium: 14.6 g anhydrous D-glucose (VWR), 7.1 g Mycological Peptone (Oxoid), 1.4 g granulated Yeast Extract (Merck), QSP 1 liter • Inoculum: spore suspension Fungicides were solubilized in DMSO and the solution used to prepare the required range of concentrations. […] A spore suspension of P. teres was prepared and diluted to the desired spore density. Fungicides were evaluated for their ability to inhibit spore germination and mycelium growth in liquid culture assay. The compounds were added in the desired concentration to the culture medium with spores. After 6 days incubation, fungi-toxicity of compounds was determined by spectrometric measurement of mycelium growth. Inhibition of fungal growth was determined by comparing the absorbance values in wells containing the fungicides with the absorbance in control wells without fungicides.

[2] = tested on: Colletotrichum lindemuthianum; assay: In vivo preventive test on Colletotrichum lindemuthianum (leaf spot on bean); conditions: 168 h, 500 ppm of active ingredient, preventive spray on young bean plants, evaluated 7 days after inoculation, read-out: efficacy
Experimental: as §1, with “bean” for “radish or cabbage”, “Colletotrichum lindemuthianum” for “Alternaria brassicae”

Botrytis cinerea [3] = assay: Botrytis cinerea in vitro cell test; type: cell-based; conditions: 144 h, 20 ppm of active ingredient, 6 days incubation, liquid culture, spectrometric measurement of mycelium growth, read-out: efficacy (inhibition of fungal growth)
Experimental: (§3) • Solvent: DMSO • Culture medium: 1 g KH2PO4 (VWR), 1 g K2HPO4 (VWR), 0.5 g Urea (VWR), 3 g KNO3 (Prolabo), 10 g saccharose (VWR), 0.5 g MgSO4, 7H2O (Sigma), 0.07 g CaCl2, 2H2O (Prolabo), 0.2 mg MnSO4, H2O (Sigma), 0.6 mg CuSO4, 5H2O (Sigma), 7.9 mg ZnSO4, 7H2O (Sigma), 0.1 mg H3BO3 (Merck), 0.14 mg NaMoO4, 2H2O (Sigma), 2 mg thiamine (Sigma), 0.1 mg biotine (VWR), 4 mg FeSO4, 7H2O (Sigma), QSP 1 liter • Inoculum: spore suspension Fungicides were solubilized in DMSO and the solution used to prepare the required range of concentrations. […] A spore suspension of B. cinerea was prepared and diluted to the desired spore density. Fungicides were evaluated for their ability to inhibit spore germination and mycelium growth in liquid culture assay. The compounds were added in the desired concentration to the culture medium with spores. After 6 days incubation, fungi-toxicity of compounds was determined by spectrometric measurement of mycelium growth. Inhibition of fungal growth was determined by comparing the absorbance values in wells containing the fungicides with the absorbance in control wells without fungicides.

Botrytis cinerea [4] = assay: In vivo preventive test on Botrytis cinerea (grey mould); conditions: 500 ppm of active ingredient, preventive spray on young gherkin or cabbage plants, evaluated 4 to 5 days after inoculation, read-out: efficacy
Experimental: as §1, with “gherkin” for “radish”, “Botrytis cinerea” for “Alternaria brassicae”

Sphaerotheca fuliginea = assay: In vivo preventive test on Sphaerotheca fuliginea (powdery mildew on cucurbits); conditions: Podosphaera fuliginea, 192 h; 500 ppm of active ingredient; preventive spray on young gherkin plants; evaluated 8 days after inoculation; read-out: efficacy
Experimental: as §1, with “gherkin” for “radish or cabbage”, “Sphaerotheca fuliginea” for “Alternaria brassicae”

[5] = tested on: Colletotrichum lindemuthianum; assay: Colletotrichum lindemuthianum in vitro cell test; type: cell-based; conditions: 144 h, 20 ppm of active ingredient, 6 days incubation, liquid culture, spectrometric measurement of mycelium growth, read-out: efficacy (inhibition of fungal growth)
Experimental: as §2, with “of C. lindemuthianum” for “of P. teres”, “inhibit spores” for “inhibit spore”

Septoria tritici = Septoria tritici in vitro cell test; type: cell-based; conditions: Zymoseptoria tritici, 168 h; 20 ppm of active ingredient; 7 days incubation; liquid culture, spectrometric measurement of mycelium growth; read-out: efficacy (inhibition of fungal growth)
Experimental: as §3, with “S. tritici” for “B. cinerea”, “After 6 days incubation, fungi-toxicity of compounds was determined by spectrometric measurement of mycelium growth.” left out

Alternaria alternata = Alternaria alternata in vitro cell test; type: cell-based; conditions: 120 h, 20 ppm of active ingredient, 5 days incubation, liquid culture, spectrometric measurement of mycelium growth, read-out: efficacy (inhibition of fungal growth)
Experimental: as §2, with “of A. alternata” for “of P. teres”, “After 5” for “After 6”

Question: With `Cc1ncc(Oc2cccc(C(F)(F)F)c2)c(C2=NOCC(Cc3ccc(C#C[Si](C)(C)C)cc3C)N2)n1` (racemic) [Compound I-010, trimethyl-[2-[3-methyl-4-[[(5RS)-3-[2-methyl-5-[3-(trifluoro-methyl)phenoxy]pyrimidin-4-yl]-5,6-dihydro-4H-1,2,4-oxadiazin-5-yl]methyl]phenyl]ethynyl]silane] as the compound, how does the chromatographic logP ([1]; method [a]: LC-UV, acidic range, 0.1% formic acid in water and acetonitrile as eluent, read-out: LogP) read?
Answer: 5.79

Question: With `COc1ccc(C[C@@H]2CON=C(c3nc(C)ncc3Oc3cccc(C(F)(F)F)c3)N2)c(Cl)c1` (racemic) [Compound I-012] as the compound, how does the pest or weed control at 500 ppm (Alternaria brassicae) read?
Answer: 90 to 100%

Question: What about the inhibition at 20 ppm (Pyrenophora teres) of the same compound?
Answer: 90 to 100%

Question: And the pest or weed control at 500 ppm [2]?
Answer: 90 to 100%

Question: What about the inhibition at 20 ppm (Botrytis cinerea [3]) of the same compound?
Answer: 90 to 100%

Question: What about the chromatographic logP ([1]; LogP) of the same compound?
Answer: 4.08

Question: What about the pest or weed control at 500 ppm (Botrytis cinerea [4]) of the same compound?
Answer: 90 to 100%

Question: What about the pest or weed control at 500 ppm (Sphaerotheca fuliginea) of the same compound?
Answer: 90 to 100%

Question: Which pest or weed control at 500 ppm (Alternaria brassicae) does the source give for `CSc1ncc(Oc2cccc(C(F)(F)F)c2)c(C2=NOC[C@@H](Cc3ccc(C)cc3Cl)N2)n1` (racemic) [Compound I-020] here?
Answer: 90 to 100%

Question: And the inhibition at 20 ppm (Pyrenophora teres)?
Answer: 90 to 100%

Question: And the inhibition at 20 ppm (Botrytis cinerea [3])?
Answer: 90 to 100%

Question: What about the chromatographic logP ([1]; LogP) of the same compound?
Answer: 5.14

Question: What about the inhibition at 20 ppm [5] of the same compound?
Answer: 90 to 100%

Question: What about the pest or weed control at 500 ppm (Botrytis cinerea [4]) of the same compound?
Answer: 90 to 100%

Question: What about the pest or weed control at 500 ppm (Sphaerotheca fuliginea) of the same compound?
Answer: 90 to 100%

Question: And the inhibition at 20 ppm (Septoria tritici)?
Answer: 70 to 79%

Question: For `Cc1ccc(CC2CCN=C(c3nc(C)ncc3Oc3cccc(Cl)c3)N2)c(C)c1` (racemic) [Compound I-022, 5-(3-chlorophenoxy)-2-methyl-4-[(6RS)-6-[(2,4-dimethylphenyl)methyl]-1,4,5,6-tetrahydropyrimidin-2-yl]pyrimidine], which chromatographic logP ([1]; LogP) is on record?
Answer: 2.59

Question: What does the source list for `Cc1ccc([C@@H]2CON=C(c3nc(C)ncc3Oc3cccc(Cl)c3)N2)c(C)c1` (racemic) [Compound I-034]?
Answer: inhibition at 20 ppm (Pyrenophora teres): 90 to 100%; inhibition at 20 ppm (Botrytis cinerea [3]): 90 to 100%; chromatographic logP ([1]; LogP): 3.8; inhibition at 20 ppm (Alternaria alternata): 90 to 100%; inhibition at 20 ppm [5]: 70 to 79%

Question: With `Cc1ncc(Oc2cccc(Cl)c2)c(C2=NOC(C)(C)[C@@H](c3ccc(F)cc3F)N2)n1` (racemic) [Compound I-035] as the compound, how does the chromatographic logP ([1]; LogP) read?
Answer: 3.84

Question: For `O=C(O)c1nc(C2CC2)ncc1Oc1cccc(C(F)(F)F)c1` [Compound 1-02, 2-cyclopropyl-5-[3-(trifluoromethyl)phenoxy]pyrimidine-4-carboxylic acid], which chromatographic logP ([1]; LogP) is on record?
Answer: 2.49

Question: With `Cc1ncc(Oc2cccc(Cl)c2)c(C(=O)O)n1` [Compound 1-03] as the compound, how does the chromatographic logP ([1]; LogP) read?
Answer: 2

Question: Which chromatographic logP ([1]; LogP) does the source give for `Cc1ncc(Oc2cccc(Br)c2)c(C(=O)O)n1` [Compound 1-04] here?
Answer: 2.15

Question: For `C#Cc1cccc(Oc2cnc(C)nc2C(=O)O)c1` [Compound 1-05], which chromatographic logP ([1]; LogP) is on record?
Answer: 1.77

Question: With `C=Cc1cccc(Oc2cnc(C)nc2C(=O)O)c1` [Compound 1-06] as the compound, how does the chromatographic logP ([1]; LogP) read?
Answer: 1.87

Question: Which chromatographic logP ([1]; LogP) does the source give for `Cc1ncc(Oc2cccc(C3CC3)c2F)c(C(=O)O)n1` [Compound 1-07] here?
Answer: 2.2

Question: For `Cc1ncc(Oc2cccc(Cl)c2F)c(C(=O)O)n1` [Compound 1-08], which chromatographic logP ([1]; LogP) is on record?
Answer: 1.91

Question: With `Cc1ncc(Oc2cccc(Cl)c2)c(C#N)n1` [Compound 16-01] as the compound, how does the chromatographic logP ([1]; LogP) read?
Answer: 3.07

Question: For `Cc1ncc(Oc2cccc(Cl)c2)c(C(N)=NO)n1` [Compound 17-01, 5-(3-chlorophenoxy)-N′-hydroxy-2-methyl-pyrimidine-4-carboxamidine], which chromatographic logP ([1]; LogP) is on record?
Answer: 1.66

Question: For `Cc1ncc(Oc2cccc(Cl)c2)c(C(N)=NOCC(=O)c2ccc3c(c2)CCC3)n1` [Compound 19-01], which chromatographic logP ([1]; LogP) is on record?
Answer: 4.15

Question: For `Cc1ncc(Oc2cccc(Cl)c2)c(C(N)=NOCC(=O)c2ccc3c(c2)OCCO3)n1` [Compound 19-02], which chromatographic logP ([1]; LogP) is on record?
Answer: 3.12

Question: For `Cc1ncc(Oc2cccc(Cl)c2)c(C(N)=NOC(C)(C)C(=O)c2ccc(F)cc2F)n1` [Compound 19-03], which chromatographic logP ([1]; LogP) is on record?
Answer: 3.41

Question: Which chromatographic logP ([1]; LogP) does the source give for `COC(=N)c1nc(C)ncc1Oc1cccc(Cl)c1` [Compound 20-01, methyl 5-(3-chlorophenoxy)-2-methyl-pyrimidine-4-carboximidate] here?
Answer: 2.19
